Like-named read-outs stand apart in the source and are kept apart here.
Assays:
Assay type in all cases: cell-based
UACC-62 = test: in vitro test at 1.0×10^−5 M, Skin cancer cell; conditions: 1.0×10^−5 molal concentration (M)
UO-31 [1] = test: in vitro test at 1.0×10^−5 M, Kidney cancer cell; conditions: 1.0×10^−5 molal concentration (M)
SN12C [2] = test: in vitro test at 1.0×10^−5 M, Kidney cancer cell; conditions: 1.0×10^−5 molal concentration (M)
SF-539 = test: in vitro test at 1.0×10^−5 M, CNS cancer cell
SK-MEL-2 = test: in vitro test at 1.0×10^−5 M, Skin cancer cell; conditions: 1.0×10^−5 molal concentration (M)
OVCAR-4 = test: in vitro test at 1.0×10^−5 M, Ovary cancer cell; conditions: 1.0×10^−5 molal concentration (M)
U251 = test: in vitro test at 1.0×10^−5 M, CNS cancer cell
HCC-2998 = test: in vitro test at 1.0×10^−5 M, Colorectal cancer cell; conditions: 1.0×10^−5 molal concentration (M)
ACHN [3] = test: in vitro test at 1.0×10^−5 M, Kidney cancer cell; conditions: 1.0×10^−5 molal concentration (M)
IGROV1 = test: in vitro test at 1.0×10^−5 M, Ovary cancer cell; conditions: 1.0×10^−5 molal concentration (M)
MOLT-4 = test: in vitro test at 1.0×10^−5 M, Blood cancer cell; conditions: 1.0×10^−5 molal concentration (M)
UACC-257 = test: in vitro test at 1.0×10^−5 M, Skin cancer cell; conditions: 1.0×10^−5 molal concentration (M)
MCF7 = test: in vitro test at 1.0×10^−5 M, Breast cancer cell; conditions: 1.0×10^−5 molal concentration (M)
LOX IMV1 = test: in vitro test at 1.0×10^−5 M, Skin cancer cell; conditions: 1.0×10^−5 molal concentration (M)
T-47D = test: in vitro test at 1.0×10^−5 M, Breast cancer cell; conditions: 1.0×10^−5 molal concentration (M)
MALME-3M = test: in vitro test at 1.0×10^−5 M, Skin cancer cell; conditions: 1.0×10^−5 molal concentration (M)
[4] = system: different cancer cell lines; test: in vitro test at 1.0×10^−5 M, summary over the cell lines; parameters: unit not given here; conditions: 1.0×10^−5 molal concentration (M)
MDA-MB-435 = test: in vitro test at 1.0×10^−5 M, Breast cancer cell; conditions: 1.0×10^−5 molal concentration (M)
MDA-MB-468 = test: in vitro test at 1.0×10^−5 M, Breast cancer cell; conditions: 1.0×10^−5 molal concentration (M)
HOP-92 = test: in vitro test at 1.0×10^−5 M, Non-small cell lung cancer cell; conditions: 1.0×10^−5 molal concentration (M)
UO-31 [5] = test: NCI DTP in-vitro dose response, Renal Cancer
A498 = test: NCI DTP in-vitro dose response, Renal Cancer
SN12C [6] = test: NCI DTP in-vitro dose response, Renal Cancer; conditions: SN12C
CAKI-1 = test: NCI DTP in-vitro dose response, Renal Cancer
ACHN [7] = test: NCI DTP in-vitro dose response, Renal Cancer; conditions: ACHN
TK-10 = test: NCI DTP in-vitro dose response, Renal Cancer
RXF 393 = test: NCI DTP in-vitro dose response, Renal Cancer
786-0 = test: NCI DTP in-vitro dose response, Renal Cancer
[8] = 1.0×10^−5 molal concentration (M)
[9] = read-out: LC50 (the source's name)

Structure (SMILES): O=C1c2ccccc2C(=O)c2c1ccc1nccnc21 [No. 25, Naphthol-[2,3-f]quinoxaline-7,12-dione]
- inhibition effect on cancer cell line (Table 2 value) (UACC-62): 90.47
- inhibition effect on cancer cell line (Table 2 value) (UO-31 [1]): 51.45
- inhibition effect on cancer cell line (Table 2 value) (SN12C [2]): 64.65
- inhibition effect on cancer cell line (Table 2 value) (SF-539; [8]): 40.72
- inhibition effect on cancer cell line (Table 2 value) (SK-MEL-2): 6.66
- inhibition effect on cancer cell line (Table 2 value) (OVCAR-4): 94.22
- inhibition effect on cancer cell line (Table 2 value) (U251; [8]): 63.47
- inhibition effect on cancer cell line (Table 2 value) (HCC-2998): −7.15
- inhibition effect on cancer cell line (Table 2 value) (ACHN [3]): 46.52
- inhibition effect on cancer cell line (Table 2 value) (IGROV1): 3.44
- inhibition effect on cancer cell line (Table 2 value) (MOLT-4): 22.91
- inhibition effect on cancer cell line (Table 2 value) (UACC-257): 91.06
- inhibition effect on cancer cell line (Table 2 value) (MCF7): 39.68
- inhibition effect on cancer cell line (Table 2 value) (LOX IMV1): 44.18
- inhibition effect on cancer cell line (Table 2 value) (T-47D): 85.19
- inhibition effect on cancer cell line (Table 2 value) (MALME-3M): 180.88
- Mean [4]: 69.36
- inhibition effect on cancer cell line (Table 2 value) (MDA-MB-435): 102.03
- inhibition effect on cancer cell line (Table 2 value) (MDA-MB-468): 75.28

Structure (SMILES): CC1(C)Nc2ccc3c(c2N1)C(=O)c1ccccc1C3=O [No. 20, 2,2-Dimethyl-2,3-dihydro-1H-anthra[1,2-d]imidazole-6,11-dione]
- inhibition effect on cancer cell line (Table 2 value) (UACC-62): 67.58
- inhibition effect on cancer cell line (Table 2 value) (HOP-92): 5.10
- inhibition effect on cancer cell line (Table 2 value) (UO-31 [1]): 30.65
- inhibition effect on cancer cell line (Table 2 value) (SN12C [2]): 91.98
- inhibition effect on cancer cell line (Table 2 value) (SF-539): 93.56
- inhibition effect on cancer cell line (Table 2 value) (SK-MEL-2): 8.04
- inhibition effect on cancer cell line (Table 2 value) (OVCAR-4): 80.14
- inhibition effect on cancer cell line (Table 2 value) (U251): 87.84
- inhibition effect on cancer cell line (Table 2 value) (HCC-2998): 136.96
- inhibition effect on cancer cell line (Table 2 value) (ACHN [3]): 50.17
- inhibition effect on cancer cell line (Table 2 value) (IGROV1): −2.80
- inhibition effect on cancer cell line (Table 2 value) (MOLT-4): 116.41
- inhibition effect on cancer cell line (Table 2 value) (UACC-257): 118.22
- inhibition effect on cancer cell line (Table 2 value) (MCF7): 83.58
- inhibition effect on cancer cell line (Table 2 value) (LOX IMV1): 61.88
- inhibition effect on cancer cell line (Table 2 value) (T-47D): 82.96
- inhibition effect on cancer cell line (Table 2 value) (MALME-3M): 155.47
- Mean [4]: 80.41
- inhibition effect on cancer cell line (Table 2 value) (MDA-MB-435): 124.56
- inhibition effect on cancer cell line (Table 2 value) (MDA-MB-468): 77.25

Structure (SMILES): O=C1c2ccccc2C(=O)c2c1ccc1[nH]c(=O)c(=O)[nH]c21 [No. 26, Naphtho[2,3-f]quinoxaline-2,3,7,12 (1H,4H)-tetraone]
- inhibition effect on cancer cell line (Table 2 value) (UACC-62): 95.25
- inhibition effect on cancer cell line (Table 2 value) (HOP-92): −15.08
- inhibition effect on cancer cell line (Table 2 value) (UO-31 [1]): 61.43
- inhibition effect on cancer cell line (Table 2 value) (SN12C [2]): 94.07
- inhibition effect on cancer cell line (Table 2 value) (SF-539; [8]): 101.16
- inhibition effect on cancer cell line (Table 2 value) (SK-MEL-2): 21.96
- inhibition effect on cancer cell line (Table 2 value) (OVCAR-4): 103.31
- inhibition effect on cancer cell line (Table 2 value) (U251; [8]): 95.92
- inhibition effect on cancer cell line (Table 2 value) (HCC-2998): 77.59
- inhibition effect on cancer cell line (Table 2 value) (ACHN [3]): 81.33
- inhibition effect on cancer cell line (Table 2 value) (IGROV1): 13.36
- inhibition effect on cancer cell line (Table 2 value) (MOLT-4): 121.52
- inhibition effect on cancer cell line (Table 2 value) (UACC-257): 118.21
- inhibition effect on cancer cell line (Table 2 value) (MCF7): 85.17
- inhibition effect on cancer cell line (Table 2 value) (LOX IMV1): 96.94
- inhibition effect on cancer cell line (Table 2 value) (T-47D): 87.10
- inhibition effect on cancer cell line (Table 2 value) (MALME-3M): 149.83
- Mean [4]: 100.83
- inhibition effect on cancer cell line (Table 2 value) (MDA-MB-435): 144.42
- inhibition effect on cancer cell line (Table 2 value) (MDA-MB-468): 38.35

Structure (SMILES): O=C1c2ccccc2C(=O)c2c1ccc1nccnc21 [TABLE 5-7]
- TGI (UO-31 [5]; UO-31): 8.59E−5
- Percent Growth (UO-31 [5]; UO-31, Log10 Concentration −4.0): −2%
- Percent Growth (UO-31 [5]; UO-31, Log10 Concentration −5.0): 25%
- Percent Growth (UO-31 [5]; UO-31, Log10 Concentration −6.0): 73%
- Percent Growth (UO-31 [5]; UO-31, Log10 Concentration −7.0): 73%
- Percent Growth (UO-31 [5]; UO-31, Log10 Concentration −8.0): 80%
- GI50 (UO-31 [5]; UO-31, read-out: GI50): 3.02 µM
- CC50 (UO-31 [5]; UO-31, read-out: LC50 (the source's name)): > 100 µM
- TGI (A498; A498): 5.03E−5
- Percent Growth (A498; A498, Log10 Concentration −4.0): −21%
- Percent Growth (A498; A498, Log10 Concentration −5.0): 49%
- Percent Growth (A498; A498, Log10 Concentration −6.0): 89%
- Percent Growth (A498; A498, Log10 Concentration −7.0): 85%
- Percent Growth (A498; A498, Log10 Concentration −8.0): 93%
- GI50 (A498; A498, read-out: GI50): 9.31 µM
- CC50 (A498; A498, read-out: LC50 (the source's name)): > 100 µM
- TGI (SN12C [6]): 9.27E−5
- Percent Growth (SN12C [6]; Log10 Concentration −4.0): −2%
- Percent Growth (SN12C [6]; Log10 Concentration −5.0): 57%
- Percent Growth (SN12C [6]; Log10 Concentration −6.0): 78%
- Percent Growth (SN12C [6]; Log10 Concentration −7.0): 71%
- Percent Growth (SN12C [6]; Log10 Concentration −8.0): 87%
- GI50 (SN12C [6]; read-out: GI50): 13.2 µM
- CC50 (SN12C [6]; [9]): > 100 µM
- TGI (CAKI-1; CAKI-1): >1.00E−4
- Percent Growth (CAKI-1; CAKI-1, Log10 Concentration −4.0): 4%
- Percent Growth (CAKI-1; CAKI-1, Log10 Concentration −5.0): 39%
- Percent Growth (CAKI-1; CAKI-1, Log10 Concentration −6.0): 87%
- Percent Growth (CAKI-1; CAKI-1, Log10 Concentration −7.0): 89%
- Percent Growth (CAKI-1; CAKI-1, Log10 Concentration −8.0): 94%
- GI50 (CAKI-1; CAKI-1, read-out: GI50): 5.83 µM
- CC50 (CAKI-1; CAKI-1, read-out: LC50 (the source's name)): > 100 µM
- TGI (ACHN [7]): >1.00E−4
- Percent Growth (ACHN [7]; Log10 Concentration −4.0): 2%
- Percent Growth (ACHN [7]; Log10 Concentration −5.0): 31%
- Percent Growth (ACHN [7]; Log10 Concentration −6.0): 77%
- Percent Growth (ACHN [7]; Log10 Concentration −7.0): 87%
- Percent Growth (ACHN [7]; Log10 Concentration −8.0): 98%
- GI50 (ACHN [7]; read-out: GI50): 3.85 µM
- CC50 (ACHN [7]; [9]): > 100 µM
- TGI (TK-10; TK-10): >1.00E−4
- Percent Growth (TK-10; TK-10, Log10 Concentration −4.0): 2%
- Percent Growth (TK-10; TK-10, Log10 Concentration −5.0): 36%
- Percent Growth (TK-10; TK-10, Log10 Concentration −6.0): 83%
- Percent Growth (TK-10; TK-10, Log10 Concentration −7.0): 85%
- Percent Growth (TK-10; TK-10, Log10 Concentration −8.0): 102%
- GI50 (TK-10; TK-10, read-out: GI50): 5 µM
- CC50 (TK-10; TK-10, read-out: LC50 (the source's name)): > 100 µM
- GI50 (RXF 393; RXF 393): 6.43 µM
- TGI (RXF 393; RXF 393): >1.00E−4
- Percent Growth (RXF 393; RXF 393, Log10 Concentration −4.0): 7%
- Percent Growth (RXF 393; RXF 393, Log10 Concentration −5.0): 43%
- Percent Growth (RXF 393; RXF 393, Log10 Concentration −6.0): 81%
- Percent Growth (RXF 393; RXF 393, Log10 Concentration −7.0): 93%
- Percent Growth (RXF 393; RXF 393, Log10 Concentration −8.0): 97%
- CC50 (RXF 393; RXF 393, read-out: LC50 (the source's name)): > 100 µM
- TGI (786-0; 786-0): >1.00E−4
- Percent Growth (786-0; 786-0, Log10 Concentration −4.0): 15%
- Percent Growth (786-0; 786-0, Log10 Concentration −5.0): 47%
- Percent Growth (786-0; 786-0, Log10 Concentration −6.0): 104%
- Percent Growth (786-0; 786-0, Log10 Concentration −7.0): 101%
- Percent Growth (786-0; 786-0, Log10 Concentration −8.0): 98%
- GI50 (786-0; 786-0, read-out: GI50): 8.87 µM
- CC50 (786-0; 786-0, read-out: LC50 (the source's name)): > 100 µM
